Data from US11850266B2, “Cardiomyocytes and compositions and methods for producing the same” (President and Fellows of Harvard College, priority 2019, dated 2023).
“Also recorded” adds a separate entry of the source.

Experiments:
[1] = tested on: TNNT2+ iPSC-derived cardiomyocytes; test: Cell cycle analysis by flow cytometry (Hoechst 33342 / pyronin Y) of TNNT2+ cardiomyocytes; format: cell-based, human
Description: To prepare for differentiation, iPSCs were plated at a density between 20,000 to 80,000 cells (depending on the cell line) per well of a 12-well plate at four days prior to onset of differentiation. Cells were differentiated according to the protocol previously described by Lian et al. with some modifications (FIG. 1A) (1). Basal media was changed from StemFlex to RPMI/B27 on day 0 of differentiation. The GSK3 inhibitor, CHIR99021 (6 μM), was added for 48 hours from day 0 to day 2 of differentiation when cells were approximately 70-80% confluent. The Wnt antagonist IWP4 (5 μM) was added from days 2 to 4 of differentiation. Insulin (10 μg/ml) was added to the media starting on day 7 of differentiation, and media was changed every 2-3 days. In general, higher purity (TNNT2+) cardiomyocytes were observed when beating initiated prior to day 10 of differentiation, therefore only batches with onset of beating between days 7-10 of differentiation were included in this study. Beating cardiomyocytes were treated with Torin1 (200 nM, unless otherwise noted) or vehicle (0.02% dimethylsulfoxide (DMSO)) beginning at ˜2 days after onset of beating for 7 days (media changed with fresh Torin1 or DMSO every 2-3 days), unless otherwise noted. After Torin1 treatment, media was switched back to RPMI/B27/insulin and maintained with media change every 2-3 days until endpoint assay. In a few assays, fatty acids were added in the form of chemically defined lipids (Gibco) diluted 1:1000 simultaneous with Torin1 treatment. In some other assays, fetal bovine serum (10% FBS) was added to cells after completion of Torin treatment for 2-4 days.
Cells were dissociated and 5×10^5 to 1×10^6 cells were used per condition. For cell cycle analysis, 5×10^5 cells per condition were fixed in 70% cold ethanol for at least 2 hours to overnight at −20 degrees C. Cells were stained first with AlexaFluor 647-TNNT2 in Permeabilization Buffer (Thermo) then with Hoechst 33342 (2 μg/ml) and pyronin Y (4 μg/ml) for 20 minutes to distinguish between cells in G0, G1, and S-G2-M phases. For other stains, cells were fixed in eBioscience Intracellular Fixation buffer for 30 minutes followed washing twice in eBioscience Permeabilization Buffer and stained with the appropriate primary antibody (Table 2) in eBioscience FACS Staining buffer for 30-60 minutes. If a secondary antibody was used, cells were incubated with the appropriate secondary antibody (Table 2) for 30-60 minutes. The geometric mean fluorescence intensity (MFI) was quantified for TNNT2 and Kir2.1 antibodies. Data were acquired via a BD LSRII instrument and analyzed using FlowJo software.

[2] = tested on: GCaMP-derived cardiomyocytes; test: Cardiomyocyte purity (% TNNT2+) in 3D suspension culture; format: cell-based, human; settings: Torin1 24 hours from day 9, assay day 10; ~70% TNNT2+ with the protocol
Description: Cardiomyocyte differentiation of iPSCs in suspension culture. The suspension differentiation protocol outlined by Kempf et al (79) will be used with some modifications. 30 ml and 125 ml disposable spinner flasks are set on a spinner plate capable of rotation speeds between 40-70 rpm placed in a 37° C., 5% CO2 incubator. Cells are seeded at 750,000 cells/ml and allowed to grow for 4 days in maintenance media until spheroids are approximately 300 μm in diameter, then differentiation is initiated with 7.5 μM CHIR99021. On day 2 of differentiation, CHIR is removed from the media and the Wnt pathway inhibitor IWP4 (5 μM) is added to the media, on day 4 of differentiation, IWP4 is removed from the media, and from day 7 onward, insulin is included in the media. […] Differentiation conditions will be optimized with all five cell lines (BJRiPS-A, DiPS 1016 SevA, GCaMP, Gibco, UCSD142i-86-1). Cardiomyocyte purity will be quantified with flow cytometry detecting TNNT2+ cells.
An example of a differentiation protocol for generating cardiomyocytes from iPSCs in suspension culture is detailed as follows. 30 ml and 125 ml disposable spinner flasks were used and were set on a spinner plate capable of rotation speeds between 40-70 rpm, where the spinner plate is placed in a 37° C., 5% CO2 incubator. […] Cardiomyocyte purity will be quantified with flow cytometry detecting TNNT2+ cells.

CCC(=O)N1CCN(c2ccc(-n3c(=O)ccc4cnc5ccc(-c6cnc7ccccc7c6)cc5c43)cc2C(F)(F)F)CC1 [Torin1]
percentage of Torin1-treated cells in G0 after 10% FBS ([1]; 10% FBS 48 hours starting two days after completion of Torin1, FIG. 1I): significant decrease
quiescent (G0) cells ([1]; Torin1 200 nM 1 week, vehicle control 24%, FIG. 1G): 48%
G1 cells ([1]; Torin1 200 nM 1 week, vehicle control 47%, FIG. 1G): 27%
percentage of quiescent (G0) TNNT2+ cardiomyocytes versus control ([1]; nutlin-3a 10 μM 24 hours, Torin1 200 nM 7 days, or both, BJRiPS-CMs, FIG. 6B): increased the percentage of quiescent (G0) TNNT2+ cardiomyocytes
percentage of TNNT2+ cardiomyocytes in G1 phase versus control ([1]; nutlin-3a 10 μM 24 hours, Torin1 200 nM 7 days, or both, FIG. 6B): decreased the percentage of TNNT2+ cardiomyocytes in G1 phase
% TNNT2+ cardiomyocyte purity in 3D suspension culture [2]: trend toward higher purity; also recorded: trend toward higher % TNNT2+ cells
